Experimental data reported in PubChem BioAssay (NCI).
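GI50 = concentration required for 50% inhibition of growth. TGI: concentration producing complete growth inhibition.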

Key:
Assay in all cases: DTP human tumour cell line panel, 384-well format
MCF7 breast = test system: MCF7 breast
EKVX NSCLC = test system: EKVX NSCLC
OVCAR-3 ovarian = test system: OVCAR-3 ovarian
RXF 393 renal = test system: RXF 393 renal
HCT-15 colon = test system: HCT-15 colon
HL-60(TB) leukemia = test system: HL-60(TB) leukemia
SK-OV-3 ovarian = test system: SK-OV-3 ovarian
IGROV1 ovarian = test system: IGROV1 ovarian
HCC-2998 colon = test system: HCC-2998 colon
HT29 colon = test system: HT29 colon
NCI-H226 lung = test system: NCI-H226 lung
HOP-62 NSCLC = test system: HOP-62 NSCLC
CAKI-1 renal = test system: CAKI-1 renal
CCRF-CEM leukemia = test system: CCRF-CEM leukemia
UACC-257 melanoma = test system: UACC-257 melanoma
SF-295 CNS = test system: SF-295 CNS
A498 renal = test system: A498 renal
COLO 205 colon = test system: COLO 205 colon
SR leukemia = test system: SR leukemia
HOP-92 NSCLC = test system: HOP-92 NSCLC
SW-620 colon = test system: SW-620 colon
SK-MEL-5 melanoma = test system: SK-MEL-5 melanoma
SK-MEL-28 melanoma = test system: SK-MEL-28 melanoma
NCI/ADR-RES ovarian = test system: NCI/ADR-RES ovarian
KM12 colon = test system: KM12 colon
OVCAR-8 ovarian = test system: OVCAR-8 ovarian
HCT-116 colon = test system: HCT-116 colon
MDA-MB-468 breast = test system: MDA-MB-468 breast
MDA-MB-435 melanoma = test system: MDA-MB-435 melanoma
NCI-H522 lung = test system: NCI-H522 lung
MDA-MB-231 breast = test system: MDA-MB-231 breast
SNB-19 CNS = test system: SNB-19 CNS
SN12C renal = test system: SN12C renal
786-0 renal = test system: 786-0 renal
RPMI-8226 leukemia = test system: RPMI-8226 leukemia
OVCAR-5 ovarian = test system: OVCAR-5 ovarian
HS 578T breast = test system: HS 578T breast
SF-539 CNS = test system: SF-539 CNS
SK-MEL-2 melanoma = test system: SK-MEL-2 melanoma
NCI-H460 NSCLC = test system: NCI-H460 NSCLC
MALME-3M melanoma = test system: MALME-3M melanoma
NCI-H23 lung = test system: NCI-H23 lung
DU-145 prostate = test system: DU-145 prostate
A549 NSCLC = test system: A549 NSCLC
SNB-75 CNS = test system: SNB-75 CNS
TK-10 renal = test system: TK-10 renal
MOLT-4 leukemia = test system: MOLT-4 leukemia
OVCAR-4 ovarian = test system: OVCAR-4 ovarian
PC-3 prostate = test system: PC-3 prostate
K-562 leukemia = test system: K-562 leukemia
ACHN renal = test system: ACHN renal
M14 melanoma = test system: M14 melanoma
NCI-H322M lung = test system: NCI-H322M lung
U251 glioblastoma = test system: U251 glioblastoma
T-47D breast = test system: T-47D breast
BT-549 breast = test system: BT-549 breast
SF-268 CNS = test system: SF-268 CNS
UACC-62 melanoma = test system: UACC-62 melanoma

Structure (SMILES): C[C@@H]1OC(O)[C@@H](F)[C@H](O)[C@@H]1O (stereo partly specified)
- GI50 (MCF7 breast): > 100 µM
- TGI (MCF7 breast): > 100 µM
- GI50 (EKVX NSCLC): > 100 µM
- TGI (EKVX NSCLC): > 100 µM
- GI50 (OVCAR-3 ovarian): > 100 µM
- TGI (OVCAR-3 ovarian): > 100 µM
- GI50 (RXF 393 renal): > 100 µM
- TGI (RXF 393 renal): > 100 µM
- GI50 (HCT-15 colon): > 100 µM
- TGI (HCT-15 colon): > 100 µM
- GI50 (HL-60(TB) leukemia): > 100 µM
- TGI (HL-60(TB) leukemia): > 100 µM
- GI50 (SK-OV-3 ovarian): > 100 µM
- TGI (SK-OV-3 ovarian): > 100 µM
- GI50 (IGROV1 ovarian): > 100 µM
- TGI (IGROV1 ovarian): > 100 µM
- GI50 (HCC-2998 colon): > 100 µM
- TGI (HCC-2998 colon): > 100 µM
- GI50 (HT29 colon): > 100 µM
- TGI (HT29 colon): > 100 µM
- GI50 (NCI-H226 lung): > 100 µM
- TGI (NCI-H226 lung): > 100 µM
- GI50 (HOP-62 NSCLC): > 100 µM
- TGI (HOP-62 NSCLC): > 100 µM
- GI50 (CAKI-1 renal): > 100 µM
- TGI (CAKI-1 renal): > 100 µM
- GI50 (CCRF-CEM leukemia): > 100 µM
- TGI (CCRF-CEM leukemia): > 100 µM
- GI50 (UACC-257 melanoma): > 100 µM
- TGI (UACC-257 melanoma): > 100 µM
- GI50 (SF-295 CNS): > 100 µM
- TGI (SF-295 CNS): > 100 µM
- GI50 (A498 renal): > 100 µM
- TGI (A498 renal): > 100 µM
- GI50 (COLO 205 colon): > 100 µM
- TGI (COLO 205 colon): > 100 µM
- GI50 (SR leukemia): > 100 µM
- TGI (SR leukemia): > 100 µM
- GI50 (HOP-92 NSCLC): > 100 µM
- TGI (HOP-92 NSCLC): > 100 µM
- GI50 (SW-620 colon): > 100 µM
- TGI (SW-620 colon): > 100 µM
- GI50 (SK-MEL-5 melanoma): > 100 µM
- TGI (SK-MEL-5 melanoma): > 100 µM
- GI50 (SK-MEL-28 melanoma): > 100 µM
- TGI (SK-MEL-28 melanoma): > 100 µM
- GI50 (NCI/ADR-RES ovarian): > 100 µM
- TGI (NCI/ADR-RES ovarian): > 100 µM
- GI50 (KM12 colon): > 100 µM
- TGI (KM12 colon): > 100 µM
- GI50 (OVCAR-8 ovarian): > 100 µM
- TGI (OVCAR-8 ovarian): > 100 µM
- GI50 (HCT-116 colon): > 100 µM
- TGI (HCT-116 colon): > 100 µM
- GI50 (MDA-MB-468 breast): > 100 µM
- TGI (MDA-MB-468 breast): > 100 µM
- GI50 (MDA-MB-435 melanoma): > 100 µM
- TGI (MDA-MB-435 melanoma): > 100 µM
- GI50 (NCI-H522 lung): > 100 µM
- TGI (NCI-H522 lung): > 100 µM
- GI50 (MDA-MB-231 breast): > 100 µM
- TGI (MDA-MB-231 breast): > 100 µM
- GI50 (SNB-19 CNS): > 100 µM
- TGI (SNB-19 CNS): > 100 µM
- GI50 (SN12C renal): > 100 µM
- TGI (SN12C renal): > 100 µM
- GI50 ([…]-0 renal): > 100 µM
- TGI (786-0 renal): > 100 µM
- GI50 (RPMI-8226 leukemia): > 100 µM
- TGI (RPMI-8226 leukemia): > 100 µM
- GI50 (OVCAR-5 ovarian): > 100 µM
- TGI (OVCAR-5 ovarian): > 100 µM
- GI50 (HS 578T breast): > 100 µM
- TGI (HS 578T breast): > 100 µM
- GI50 (SF-539 CNS): > 100 µM
- TGI (SF-539 CNS): > 100 µM
- GI50 (SK-MEL-2 melanoma): > 100 µM
- TGI (SK-MEL-2 melanoma): > 100 µM
- GI50 (NCI-H460 NSCLC): > 100 µM
- TGI (NCI-H460 NSCLC): > 100 µM
- GI50 (MALME-3M melanoma): > 100 µM
- TGI (MALME-3M melanoma): > 100 µM
- GI50 (NCI-H23 lung): > 100 µM
- TGI (NCI-H23 lung): > 100 µM
- GI50 (DU-145 prostate): > 100 µM
- TGI (DU-145 prostate): > 100 µM
- GI50 (A549 NSCLC): > 100 µM
- TGI (A549 NSCLC): > 100 µM
- GI50 (SNB-75 CNS): > 100 µM
- TGI (SNB-75 CNS): > 100 µM
- GI50 (TK-10 renal): > 100 µM
- TGI (TK-10 renal): > 100 µM
- GI50 (MOLT-4 leukemia): > 100 µM
- TGI (MOLT-4 leukemia): > 100 µM
- GI50 (OVCAR-4 ovarian): > 100 µM
- TGI (OVCAR-4 ovarian): > 100 µM
- GI50 (PC-3 prostate): > 100 µM
- TGI (PC-3 prostate): > 100 µM
- GI50 (K-562 leukemia): > 100 µM
- TGI (K-562 leukemia): > 100 µM
- GI50 (ACHN renal): > 100 µM
- TGI (ACHN renal): > 100 µM
- GI50 (M14 melanoma): > 100 µM
- TGI (M14 melanoma): > 100 µM
- GI50 (NCI-H322M lung): > 100 µM
- TGI (NCI-H322M lung): > 100 µM
- GI50 (U251 glioblastoma): > 100 µM
- TGI (U251 glioblastoma): > 100 µM
- GI50 (T-47D breast): > 100 µM
- TGI (T-47D breast): > 100 µM
- GI50 (BT-549 breast): > 100 µM
- TGI (BT-549 breast): > 100 µM
- GI50 (SF-268 CNS): > 100 µM
- TGI (SF-268 CNS): > 100 µM
- GI50 (UACC-62 melanoma): > 100 µM
- TGI (UACC-62 melanoma): > 100 µM
